PubChem BioAssay AID1259407 (Chemical Carcinogenesis Research Information System (CCRIS), 2018)
The source made the active and inactive calls. The rule behind the calls is not given here.

System: CCRIS mutagenicity, Ames/micronucleus/aberration tests
Experiment: CCRIS mutagenicity studies
[1] = Test System: AMES SALMONELLA TYPHIMURIUM, Strain/Indicator: TA97, Metabolic Activation: NONE, Method: PREINCUBATION
[2] = Test System: AMES SALMONELLA TYPHIMURIUM, Strain/Indicator: TA98, Metabolic Activation: HAMSTER, LIVER, S-9, AROCLOR 1254 (10%), Method: PREINCUBATION
[3] = Test System: AMES SALMONELLA TYPHIMURIUM, Strain/Indicator: TA98, Metabolic Activation: NONE, Method: PREINCUBATION
[4] = Test System: AMES SALMONELLA TYPHIMURIUM, Strain/Indicator: TA98, Metabolic Activation: RAT, LIVER, S-9, AROCLOR 1254 (10%), Method: PREINCUBATION
[5] = Test System: AMES SALMONELLA TYPHIMURIUM, Strain/Indicator: TA100, Metabolic Activation: HAMSTER, LIVER, S-9, AROCLOR 1254 (10%), Method: PREINCUBATION
[6] = Test System: AMES SALMONELLA TYPHIMURIUM, Strain/Indicator: TA100, Metabolic Activation: NONE, Method: PREINCUBATION
[7] = Test System: AMES SALMONELLA TYPHIMURIUM, Strain/Indicator: TA100, Metabolic Activation: RAT, LIVER, S-9, AROCLOR 1254 (10%), Method: PREINCUBATION
[8] = Test System: AMES SALMONELLA TYPHIMURIUM, Strain/Indicator: TA1535, Metabolic Activation: HAMSTER, LIVER, S-9, AROCLOR 1254 (10%), Method: PREINCUBATION
[9] = Test System: AMES SALMONELLA TYPHIMURIUM, Strain/Indicator: TA1535, Metabolic Activation: NONE, Method: PREINCUBATION
[10] = Test System: AMES SALMONELLA TYPHIMURIUM, Strain/Indicator: TA1535, Metabolic Activation: RAT, LIVER, S-9, AROCLOR 1254 (10%), Method: PREINCUBATION
[11] = Test System: AMES SALMONELLA TYPHIMURIUM, Strain/Indicator: TA1537, Metabolic Activation: NONE, Method: PREINCUBATION

OC[P+](CO)(CO)CO
mutagenic call (End Point: IN VITRO CHROMOSOMAL ABERRATIONS, Test System: CHO CELLS, Metabolic Activation: NONE): active; positive
mutagenic call (Test System: AMES SALMONELLA TYPHIMURIUM, Strain/Indicator: TA97, Metabolic Activation: HAMSTER, LIVER, S-9, AROCLOR 1254 (10%), Method: PREINCUBATION): inactive; negative
mutagenic call (Test System: AMES SALMONELLA TYPHIMURIUM, Strain/Indicator: TA97, Metabolic Activation: HAMSTER, LIVER, S-9, AROCLOR 1254 (30%), Method: PREINCUBATION): inactive; negative
mutagenic call [1]: inactive; negative
mutagenic call (Test System: AMES SALMONELLA TYPHIMURIUM, Strain/Indicator: TA97, Metabolic Activation: RAT, LIVER, S-9, AROCLOR 1254 (10%), Method: PREINCUBATION): inactive; negative
mutagenic call (Test System: AMES SALMONELLA TYPHIMURIUM, Strain/Indicator: TA97, Metabolic Activation: RAT, LIVER, S-9, AROCLOR 1254 (30%), Method: PREINCUBATION): inactive; negative
mutagenic call [2]: inactive; negative
mutagenic call (Test System: AMES SALMONELLA TYPHIMURIUM, Strain/Indicator: TA98, Metabolic Activation: HAMSTER, LIVER, S-9, AROCLOR 1254 (30%), Method: PREINCUBATION): inactive; negative
mutagenic call (Test System: AMES SALMONELLA TYPHIMURIUM, Strain/Indicator: TA98, Metabolic Activation: HAMSTER, LIVER, S-9, AROCLOR 1254, Method: PREINCUBATION): inactive; negative
mutagenic call [3]: inactive; negative
mutagenic call [4]: inactive; negative
mutagenic call (Test System: AMES SALMONELLA TYPHIMURIUM, Strain/Indicator: TA98, Metabolic Activation: RAT, LIVER, S-9, AROCLOR 1254 (30%), Method: PREINCUBATION): inactive; negative
mutagenic call (Test System: AMES SALMONELLA TYPHIMURIUM, Strain/Indicator: TA98, Metabolic Activation: RAT, LIVER, S-9, AROCLOR 1254, Method: PREINCUBATION): inactive; negative
mutagenic call [5]: inactive; negative
mutagenic call (Test System: AMES SALMONELLA TYPHIMURIUM, Strain/Indicator: TA100, Metabolic Activation: HAMSTER, LIVER, S-9, AROCLOR 1254 (30%), Method: PREINCUBATION): inactive; negative
mutagenic call (Test System: AMES SALMONELLA TYPHIMURIUM, Strain/Indicator: TA100, Metabolic Activation: HAMSTER, LIVER, S-9, AROCLOR 1254, Method: PREINCUBATION): inactive; negative
mutagenic call [6]: inactive; negative
mutagenic call [7]: inactive; negative
mutagenic call (Test System: AMES SALMONELLA TYPHIMURIUM, Strain/Indicator: TA100, Metabolic Activation: RAT, LIVER, S-9, AROCLOR 1254 (30%), Method: PREINCUBATION): inactive; negative
mutagenic call (Test System: AMES SALMONELLA TYPHIMURIUM, Strain/Indicator: TA100, Metabolic Activation: RAT, LIVER, S-9, AROCLOR 1254, Method: PREINCUBATION): inactive; negative
mutagenic call [8]: inactive; negative
mutagenic call (Test System: AMES SALMONELLA TYPHIMURIUM, Strain/Indicator: TA1535, Metabolic Activation: HAMSTER, LIVER, S-9, AROCLOR 1254 (30%), Method: PREINCUBATION): inactive; negative
mutagenic call (Test System: AMES SALMONELLA TYPHIMURIUM, Strain/Indicator: TA1535, Metabolic Activation: HAMSTER, LIVER, S-9, AROCLOR 1254, Method: PREINCUBATION): inactive; negative
mutagenic call [9]: inactive; negative
mutagenic call [10]: inactive; negative
mutagenic call (Test System: AMES SALMONELLA TYPHIMURIUM, Strain/Indicator: TA1535, Metabolic Activation: RAT, LIVER, S-9, AROCLOR 1254 (30%), Method: PREINCUBATION): inactive; negative
mutagenic call (Test System: AMES SALMONELLA TYPHIMURIUM, Strain/Indicator: TA1535, Metabolic Activation: RAT, LIVER, S-9, AROCLOR 1254, Method: PREINCUBATION): inactive; negative
mutagenic call (Test System: AMES SALMONELLA TYPHIMURIUM, Strain/Indicator: TA1537, Metabolic Activation: HAMSTER, LIVER, S-9, AROCLOR 1254 (10%), Method: PREINCUBATION): inactive; negative
mutagenic call (Test System: AMES SALMONELLA TYPHIMURIUM, Strain/Indicator: TA1537, Metabolic Activation: HAMSTER, LIVER, S-9, AROCLOR 1254 (30%), Method: PREINCUBATION): inactive; negative
mutagenic call (Test System: AMES SALMONELLA TYPHIMURIUM, Strain/Indicator: TA1537, Metabolic Activation: HAMSTER, LIVER, S-9, AROCLOR 1254, Method: PREINCUBATION): inactive; negative
mutagenic call [11]: inactive; negative
mutagenic call (Test System: AMES SALMONELLA TYPHIMURIUM, Strain/Indicator: TA1537, Metabolic Activation: RAT, LIVER, S-9, AROCLOR 1254 (10%), Method: PREINCUBATION): inactive; negative
mutagenic call (Test System: AMES SALMONELLA TYPHIMURIUM, Strain/Indicator: TA1537, Metabolic Activation: RAT, LIVER, S-9, AROCLOR 1254 (30%), Method: PREINCUBATION): inactive; negative
mutagenic call (Test System: AMES SALMONELLA TYPHIMURIUM, Strain/Indicator: TA1537, Metabolic Activation: RAT, LIVER, S-9, AROCLOR 1254, Method: PREINCUBATION): inactive; negative
mutagenic call (Test System: MOUSE LYMPHOMA, Strain/Indicator: L5178Y (TK+/TK-), Metabolic Activation: NONE, Method: SUSPENSION/PLATE): active; positive

C[C@H]1CCC[C@@]2(C)CCCC[C@]12O
mutagenic call (Test System: AMES SALMONELLA TYPHIMURIUM, Strain/Indicator: TA98, Metabolic Activation: NONE, Method: STANDARD PLATE): inactive; negative
mutagenic call (Test System: AMES SALMONELLA TYPHIMURIUM, Strain/Indicator: TA98, Metabolic Activation: RAT, LIVER, S-9, AROCLOR 1254, Method: STANDARD PLATE): inactive; negative
mutagenic call (Test System: AMES SALMONELLA TYPHIMURIUM, Strain/Indicator: TA100, Metabolic Activation: NONE, Method: STANDARD PLATE): inactive; negative
mutagenic call (Test System: AMES SALMONELLA TYPHIMURIUM, Strain/Indicator: TA100, Metabolic Activation: RAT, LIVER, S-9, AROCLOR 1254, Method: STANDARD PLATE): inactive; negative

CC(C#N)CCC#N (stereo unspecified)
mutagenic call (Test System: AMES SALMONELLA TYPHIMURIUM, Strain/Indicator: TA97, Metabolic Activation: HAMSTER, LIVER, S-9, AROCLOR 1254 (5, 10 OR 30%), Method: PREINCUBATION): inactive; negative
mutagenic call [1]: inactive; negative
mutagenic call (Test System: AMES SALMONELLA TYPHIMURIUM, Strain/Indicator: TA97, Metabolic Activation: RAT, LIVER, S-9, AROCLOR 1254 (5, 1O OR 30%), Method: PREINCUBATION): inactive; negative
mutagenic call [2]: inactive; negative
mutagenic call [3]: inactive; negative
mutagenic call [4]: inactive; negative
mutagenic call [5]: inactive; negative
mutagenic call [6]: inactive; negative
mutagenic call [7]: inactive; negative
mutagenic call [8]: inactive; negative
mutagenic call [9]: inactive; negative
mutagenic call [10]: inactive; negative
mutagenic call (Test System: AMES SALMONELLA TYPHIMURIUM, Strain/Indicator: TA1537, Metabolic Activation: HAMSTER, LIVER, S-9, AROCLOR 1254 (10 OR 30%), Method: PREINCUBATION): inactive; negative
mutagenic call [11]: inactive; negative
mutagenic call (Test System: AMES SALMONELLA TYPHIMURIUM, Strain/Indicator: TA1537, Metabolic Activation: RAT, LIVER, S-9, AROCLOR 1254 (10 OR 30%), Method: PREINCUBATION): inactive; negative

CC(=O)CC(=O)Nc1ccc(O)cc1
mutagenic call (Test System: AMES SALMONELLA TYPHIMURIUM, Strain/Indicator: TA100, Metabolic Activation: HAMSTER, LIVER, S-9, KANECHLOR 400, Method: PREINCUBATION): inactive; negative
mutagenic call [6]: inactive; negative
